Test results taken from US20100204135A1, “USE OF LVV-HEMORPHIN-6 AND OPTIONALLY AF12198 AS THERAPEUTIC AGENT(S)” (priority 2007, published 2010).
Where no end group is shown, it is not given here.

What was measured:
HCMV strain AD169 = assay: HCMV plaque formation assay in MRC-5 cells; format: cell-based; settings: for inhibition of HCMV plaque formation as compared to the virus control experiment: 10 micrograms per ml, 7-10 days
Interferon-γ (IFN-γ) = assay: Th1/Th2 cytokine profiling assay, IFN-γ; format: cell-based, mouse; settings: 10 micrograms per ml; Ovalbumin-restimulated Balb/c spleen cells, 72 hours
Procedure: (§1) The Balb/c mice (originated in 1923, it is a popular strain and is used in many different research disciplines. Also classified as an inbred from the production of 20 size) were immunized on Days 1, 15, and 29 with Ovalbumin (Ovalbumin is the main protein found in egg white, commonly used to stimulate an immunological reaction in test animals) in PBS (5 micrograms/injection). On day 50, spleens of the mice were harvested (3 weeks after last boost with Ovalbumin). Cells were cultured (2×10^5/well in triplicate) and incubated with culture medium or test peptides—10 micrograms per ml—for 30 min. Thereafter, additional Ovalbumin was added to the cells at 10 micrograms/ml for in vitro restimulation of the cells. 72 hours later, cell supernatants were harvested and assayed using the Becton Dickinson Mouse Th1/Th2 Cytokine CBA Kit. This kit can be used to measure Interleukin-2 (IL-2), Interleukin-4 (IL-4), Interleukin-5 (IL-5), Interferon-γ (IFN-γ), and Tumor Necrosis Factor-a (TNF-a) protein levels in a single sample. The kit performance has been optimized for analysis of physiologically relevant concentrations (μg/ml levels) of specific cytokine proteins in tissue culture supernatants and serum samples.

[1] = tested on: hepatitis B virus (HBV) ayw strain; assay: HBV experimental assay system, HepG2-2.2.15, TaqMan PCR of secreted HBV DNA; format: cell-based; settings: 10 micrograms per ml; HepG2-2.2.15, six days, HBV DNA in supernatant
[2] = tested on: Tumor Necrosis Factor-a (TNF-a); assay: Th1/Th2 cytokine profiling assay, TNF-alpha; format: cell-based, mouse; settings: 10 micrograms per ml; Ovalbumin-restimulated Balb/c spleen cells, 72 hours
Procedure: as §1

Interleukin-5 (IL-5) = assay: Th1/Th2 cytokine profiling assay, IL-5; format: cell-based, mouse; settings: 10 micrograms per ml; Ovalbumin-restimulated Balb/c spleen cells, 72 hours
Procedure: as §1

Interleukin-2 (IL-2) = assay: Th1/Th2 cytokine profiling assay, IL-2; format: cell-based, mouse; settings: 10 micrograms per ml; Ovalbumin-restimulated Balb/c spleen cells, 72 hours
Procedure: as §1

Interleukin-4 (IL-4) = assay: Th1/Th2 cytokine profiling assay, IL-4; format: cell-based, mouse; settings: 10 micrograms per ml; Ovalbumin-restimulated Balb/c spleen cells, 72 hours
Procedure: as §1

HUVEC = assay: Endothelial tube formation assay; format: cell-based, human; settings: 10 micrograms per ml, 20 hours
Text: Positive control was vehicle only.

Human A549 cells = assay: Apoptosis prevention assay (Annexin-5, C2 ceramide); format: cell-based; settings: 10 micrograms per ml; A549 pretreated 30 min, then C2 ceramide
[3] = tested on: Primary Human endothelial cells (HUVEC); assay: Endothelial cell migration assay; format: cell-based; settings: 10 micrograms per ml, 22 hours
Procedure: Thereafter, designated concentration of testing peptides—10 micrograms per ml—was added in duplicate wells.

Compound | antiviral activity of positive control compound (HCMV strain AD169; positive control, HCMV AD169) | decrease of the production of IFN-γ in murine spleen cells (Interferon-γ (IFN-γ)) | inhibition of HBV replication as compared to the virus control infection [1] [%] | change of the production of TNF-alpha in murine spleen cells [2] | decrease of the production of IL-5 in murine spleen cells (Interleukin-5 (IL-5)) [%] | increase of the production of IL-2 in murine spleen cells (Interleukin-2 (IL-2)) [%] | inhibition of HCMV plaque formation as compared to the virus control experiment (HCMV strain AD169) | change of the production of IL-4 in murine spleen cells (Interleukin-4 (IL-4)) | increase of the tube formation of human endothelial cells (HUVEC) [%] | effect on the ceramide-induced apoptosis on human lung cells (Human A549 cells) | inhibition of the migration of human endothelial cells [3] [%]
Nc1nc(O)c2ncn(COC(CO)CO)c2n1 [Ganciclovir, reference compound] | expected levels of antiviral activity |  |  |  |  |  |  |  |  |  | 
Leu-Val-Val-Tyr-Pro-Trp-Thr-Gln-Arg-OH (LVVYPWTQR-OH) [Peptide 1] |  | did not significantly change | 24.3 | did not significantly change | 33 | 54.3 | did not inhibit | did not significantly change | 2 | did not reduce | 4
Phe-Glu-Trp-Thr-Pro-Gly-Tyr-Trp-Gln-Pro-Tyr-Ala-Leu-Pro-Leu-OH (FEWTPGYWQPYALPL-OH) [Peptide 2] |  | 37.5% | 26.3 | did not significantly change | 38.8 | 68.1 | did not inhibit | did not significantly change | 4 | 28.6% | 
